From PubChem BioAssay (NCI)
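Growth conditions: 96-well plates. Treatment: test compound, 48 hours, 5 concentrations. Analysis: linear interpolation between bracketing concentrations; unreached endpoints set to highest concentration. TGI denotes the concentration required for complete inhibition of growth.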

Key:
Assay in all cases: NCI-60 cell line screen, 48 h
[1] = system: U251 CNS
[2] = system: SNB-19 CNS
[3] = system: OVCAR-5 ovarian
[4] = system: A549 NSCLC
[5] = system: NCI-H522 lung
[6] = system: M14 melanoma
[7] = system: NCI-H226 lung
[8] = system: LOX IMVI melanoma
[9] = system: SK-MEL-5 melanoma
[10] = system: MDA-MB-435

`CCOC(=O)/C(C1=NCCN1C)=C(\O)c1ccccc1` was tested, and the TGI [1] was > 100 µM, the TGI [2] was > 100 µM and the TGI [3] was > 100 µM. For the same compound, the TGI [4] was > 100 µM, the TGI [5] was > 100 µM and the TGI [6] was > 100 µM. The TGI [7] was > 100 µM, the TGI [8] was > 100 µM and the TGI [9] was > 100 µM.
`O=C(c1ccccc1)n1cc(/C=C/[N+](=O)[O-])c2ccccc21` was tested, and the TGI [1] was 33.3 µM, the TGI [2] was 92.3 µM and the TGI [3] was > 100 µM. The TGI [4] was > 100 µM, the TGI [5] was 28.8 µM and the TGI [6] was 41 µM. For the same compound, the TGI [8] was 29.8 µM and the TGI [9] was > 100 µM.
For `Cc1cc(C)c(NS(=O)c2ccc(Cl)cc2)c(C)c1` (stereo not drawn), the TGI [1] was > 100 µM, the TGI [2] was > 100 µM and the TGI [3] was > 100 µM. The TGI [4] was > 100 µM, the TGI [10] was > 100 µM and the TGI [6] was > 100 µM. For the same compound, the TGI [7] was > 100 µM.
In the case of `Cc1nc(C)c(N2CCN(Cc3ccccc3)CC2)c(=O)[nH]1`, the TGI [1] is reported as > 100 µM, the TGI [2] is reported as > 100 µM and the TGI [4] is reported as > 100 µM. The TGI [5] was > 100 µM, the TGI [10] was > 100 µM and the TGI [6] was > 100 µM. The TGI [7] was > 100 µM, the TGI [8] was > 100 µM and the TGI [9] was > 100 µM.
For `Cc1c2c(n3c(nc4ccccc43)c1C#N)N(c1ccc(F)cc1)CC2`, the TGI [1] was > 100 µM, the TGI [2] was > 100 µM and the TGI [3] was > 100 µM. For the same compound, the TGI [4] was > 100 µM, the TGI [5] was > 100 µM and the TGI [10] was > 100 µM. The TGI [7] was > 100 µM, the TGI [8] was > 100 µM and the TGI [9] was > 100 µM.
For `C#CN1C(=O)c2c(c(-c3ccccc3)c(-c3ccc(Oc4ccc(-c5c(-c6ccccc6)c6c(c(-c7ccccc7)c5-c5ccccc5)C(=O)N(C#C)C6=O)cc4)cc3)c(-c3ccccc3)c2-c2ccccc2)C1=O`, the TGI [1] was > 100 µM, the TGI [2] was > 100 µM and the TGI [3] was > 100 µM. For the same compound, the TGI [4] was > 100 µM, the TGI [5] was > 100 µM and the TGI [6] was > 100 µM. For the same compound, the TGI [8] was > 100 µM and the TGI [9] was > 100 µM.
For `Cc1c(-c2coc(-c3ccc([N+](=O)[O-])cc3)n2)c(=O)n(-c2ccccc2)n1C`, the TGI [1] was > 100 µM, the TGI [3] was > 100 µM and the TGI [4] was > 100 µM. For the same compound, the TGI [5] was > 100 µM, the TGI [6] was > 100 µM and the TGI [7] was > 100 µM. The TGI [8] was > 100 µM and the TGI [9] was > 100 µM.
`COC(C)=NCCC1=CCCCC1` was tested, and the TGI [1] was > 100 µM, the TGI [2] was > 100 µM and the TGI [3] was > 100 µM. For the same compound, the TGI [4] was > 100 µM, the TGI [5] was > 100 µM and the TGI [10] was > 100 µM. The TGI [6] was > 100 µM and the TGI [9] was > 100 µM.
In the case of `Cc1ccc(S(=O)(=O)c2ccc(C)cc2[N+](=O)[O-])c([N+](=O)[O-])c1`, the TGI [1] is reported as > 100 µM, the TGI [2] is reported as > 100 µM and the TGI [3] is reported as > 100 µM. The TGI [4] was > 100 µM, the TGI [5] was > 100 µM and the TGI [6] was > 100 µM. For the same compound, the TGI [7] was > 100 µM, the TGI [8] was > 100 µM and the TGI [9] was > 100 µM.
For `Cc1n[nH]c(=O)n1/N=C/c1ccco1`, the TGI [1] was > 100 µM, the TGI [2] was > 100 µM and the TGI [3] was > 100 µM. The TGI [4] was > 100 µM, the TGI [10] was > 100 µM and the TGI [6] was > 100 µM. For the same compound, the TGI [7] was > 100 µM.
`O=[N+]([O-])C(C(Cl)=C(Cl)Cl)=C(N1CCCCC1)N1CCCCC1` was tested, and the TGI [1] was > 100 µM, the TGI [2] was > 100 µM and the TGI [3] was > 100 µM. For the same compound, the TGI [4] was > 100 µM, the TGI [6] was > 100 µM and the TGI [7] was > 100 µM. The TGI [8] was > 100 µM and the TGI [9] was > 100 µM.
In the case of `c1ccc2cc(C3NCCc4[nH]cnc43)ccc2c1` (stereo not drawn), the TGI [1] is reported as > 100 µM, the TGI [3] is reported as > 100 µM and the TGI [4] is reported as > 100 µM. The TGI [5] was > 100 µM, the TGI [6] was > 100 µM and the TGI [7] was > 100 µM. The TGI [8] was > 100 µM and the TGI [9] was 45.3 µM.
